Results as given in PMC12363342, “Investigating the N-terminal linker histone H1 subtypes as substrates for JmjC lysine demethylases” (RSC Chemical Biology, 2025).
Square brackets hold non-standard residues; d marks the D form. Ends that are not written are not given here. Lys(Me3) = C[N+](C)(C)CCCC[C@H](N)C(=O)O

What was measured:
[1] = target: T1, KDM4D (Homo sapiens, UniProt Q6B0I6); assay: LC-MS demethylation activity assay, KDM4D; assay type: biochemical; settings: room temperature; for substrate conversion (demethylation) by KDM4D / di-methylated product formed by KDM4D / mono-methylated product formed by KDM4D: 2 μM KDM4D, 10 μM peptide; for substrate conversion (demethylation) by KDM4D / KDM4D demethylation activity, T: 10 μM FAS, 100 μM LAA, 20 μM 2OG; for substrate conversion (demethylation) by KDM4D: HEPES pH 7.5, 2 h; for di-methylated product formed by KDM4D / mono-methylated product formed by KDM4D: standard conditions, 2 h; for KDM4D demethylation activity, T: 2 μM KDM, 10 μM H1/H3 peptide, 50 mM HEPES pH 7.5, 2 h, T (tri-) initial methylation state
T1 construct: KDM4AM1-L359,[38]; KDM4DM1-L359,[39]; KDM4EM1-R336,[30]; His6 (N); made in house; host or cells: Escherichia coli
T1 sequence (Q6B0I6 1-359): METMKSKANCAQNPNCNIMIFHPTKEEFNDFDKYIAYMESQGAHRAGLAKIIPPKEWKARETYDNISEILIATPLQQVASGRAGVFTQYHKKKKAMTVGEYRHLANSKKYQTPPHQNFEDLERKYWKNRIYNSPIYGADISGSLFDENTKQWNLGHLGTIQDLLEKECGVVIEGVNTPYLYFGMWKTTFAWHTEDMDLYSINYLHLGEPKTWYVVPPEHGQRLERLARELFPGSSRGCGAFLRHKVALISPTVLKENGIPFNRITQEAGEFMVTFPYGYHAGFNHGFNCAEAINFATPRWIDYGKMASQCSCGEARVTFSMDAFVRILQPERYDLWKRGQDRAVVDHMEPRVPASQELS
Outline: (§1)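 His6-tagged recombinant catalytic domains (2.0 μM) were used: KDM4A M1–L359, KDM4D M1–L359 and KDM3C L2157–L2500 from E. coli, and KDM5D M1–D775 from Sf9. Each acted on 10 μM H1 peptide in 50 mM HEPES pH 7.5 with 10 μM Fe(II), 100 μM ascorbate and 20 μM 2OG for 2 h at room temperature. Reactions were formic acid-quenched and analysed by LC-MS.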

[2] = system: KDM5D; assay: LC-MS demethylation activity assay, KDM5D; assay type: biochemical, human; settings: 2 μM KDM, 10 μM H1/H3 peptide, 10 μM FAS, 100 μM LAA, 20 μM 2OG, 50 mM HEPES pH 7.5, 2 h, room temperature, T (tri-) initial methylation state
Outline: as §1

KKKAAK[Lys(Me3)]AGGTPRKA [Peptide H1.2K26me3, 15-mer linker histone H1.2 residues 20-34 peptide, tri-methylated K26]
substrate conversion (demethylation) by KDM4D [1]: ~70%
di-methylated product formed by KDM4D [1]: ~30%
mono-methylated product formed by KDM4D [1]: ~40%
KDM4D demethylation activity, T [1]: ● [green] (green dots indicate good demethylation (>50% conversion))
KDM5D demethylation activity, T [2]: ● [red]

KKKAA[Lys(Me3)]KAGGTPRKA [Peptide H1.2K25me3, 15-mer linker histone H1.2 residues 20-34 peptide, tri-methylated K25]
KDM4D demethylation activity, T [1]: ● [red]
KDM5D demethylation activity, T [2]: ● [red]

KKKAR[Lys(Me3)]SAGAAKRKA [Peptide H1.4K25me3, 15-mer linker histone H1.4 residues 20-34 peptide, tri-methylated K25]
substrate conversion (demethylation) by KDM4D [1]: ~92%
di-methylated product formed by KDM4D [1]: ~30%
mono-methylated product formed by KDM4D [1]: ~62%
KDM4D demethylation activity, T [1]: ● [green] (green dots indicate good demethylation (>50% conversion))
KDM5D demethylation activity, T [2]: ● [red]

KKKATK[Lys(Me3)]AAGAGAAK [Peptide H1.5K26me3, 15-mer linker histone H1.5 residues 20-34 peptide, tri-methylated K26]
KDM4D demethylation activity, T [1]: ● [green] (green dots indicate good demethylation (>50% conversion))
KDM5D demethylation activity, T [2]: ● [red]

KKKA[Lys(Me3)]KAGATAGKRK [Peptide H1.3K24me3, 15-mer linker histone H1.3 residues 20-34 peptide, tri-methylated K24]
substrate conversion (demethylation) by KDM4D [1]: ~68%
di-methylated product formed by KDM4D [1]: ~30%
mono-methylated product formed by KDM4D [1]: ~40%
KDM4D demethylation activity, T [1]: ● [green] (green dots indicate good demethylation (>50% conversion))
KDM5D demethylation activity, T [2]: ● [red]
